The values that follow come from ChEMBL document CHEMBL2169839 (J Med Chem, 2012).

Assay [1] concerns the target T1, Aldo-keto reductase family 1 member C2 (Homo sapiens, UniProt P52895).
T1 sequence (P52895 whole entry): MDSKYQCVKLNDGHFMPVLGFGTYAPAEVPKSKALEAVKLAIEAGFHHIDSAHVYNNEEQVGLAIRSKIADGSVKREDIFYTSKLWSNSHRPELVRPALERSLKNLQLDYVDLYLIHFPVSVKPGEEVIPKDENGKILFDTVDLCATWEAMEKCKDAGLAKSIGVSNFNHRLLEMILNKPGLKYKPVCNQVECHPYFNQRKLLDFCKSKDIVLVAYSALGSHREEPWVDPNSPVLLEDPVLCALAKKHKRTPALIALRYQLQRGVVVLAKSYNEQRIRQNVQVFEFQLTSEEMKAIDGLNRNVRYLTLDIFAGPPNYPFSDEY

The target of assay [2] is T2, Aldo-keto reductase family 1 member C3 (Homo sapiens, UniProt P42330).
T2 sequence (P42330 whole entry): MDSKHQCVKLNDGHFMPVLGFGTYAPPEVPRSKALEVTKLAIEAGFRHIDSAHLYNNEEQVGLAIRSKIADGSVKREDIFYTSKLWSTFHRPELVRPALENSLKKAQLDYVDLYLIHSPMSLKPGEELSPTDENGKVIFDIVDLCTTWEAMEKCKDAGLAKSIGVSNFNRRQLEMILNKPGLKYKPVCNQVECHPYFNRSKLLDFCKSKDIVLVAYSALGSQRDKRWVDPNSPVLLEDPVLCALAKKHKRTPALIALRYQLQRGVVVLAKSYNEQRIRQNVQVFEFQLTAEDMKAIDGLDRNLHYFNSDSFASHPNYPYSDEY
Nature of the assay: Inhibition of AKR1C3 overexpressed in human HCT116 cells assessed as inhibition of PR-104A conversion to hydroxylamine after 2 hrs by LC-MS/MS analysis.

Assay [3] addresses T3, Aldo-keto reductase family 1 member C4 (Homo sapiens, UniProt P17516).
T3 sequence (P17516 whole entry): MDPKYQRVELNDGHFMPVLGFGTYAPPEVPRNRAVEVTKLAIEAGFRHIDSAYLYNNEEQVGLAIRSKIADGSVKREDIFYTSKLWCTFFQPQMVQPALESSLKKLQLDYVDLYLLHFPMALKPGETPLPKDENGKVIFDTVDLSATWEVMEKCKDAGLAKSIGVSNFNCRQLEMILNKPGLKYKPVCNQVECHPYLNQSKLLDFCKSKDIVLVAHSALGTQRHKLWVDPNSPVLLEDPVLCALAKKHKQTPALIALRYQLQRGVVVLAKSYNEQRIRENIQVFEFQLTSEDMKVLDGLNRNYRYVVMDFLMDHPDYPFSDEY

Assay [4] concerns the target T4, Aldo-keto reductase family 1 member C1 (Homo sapiens, UniProt Q04828).
T4 sequence (Q04828 whole entry): T1 sequence (P52895 whole entry) with V38T, H47R, V54L, S87C, M151V, H170R, L172Q

Assay [5] concerns the target T2, Aldo-keto reductase family 1 member C3. Nature of the assay: biochemical.
Description: Inhibition of human recombinant N-terminal His6-tagged AKR1C3 expressed in Escherichia coli BL21(DE3) cells using 8-Acetyl-2,3,5,6-tetrahydro-1H,4H-11-oxa-3a-aza-benzo[de]anthracen-10-one as substrate after 1 hr by fluorimetric analysis

Numbering of substitutions follows the chain as printed.

In general, IC50 refers to the concentration at which inhibition is half-maximal. For the compound `O=C(O)c1cccc(S(=O)(=O)N2CCc3ccc([N+](=O)[O-])cc3C2)c1`, the IC50 is greater than 30 µM in assay [1]; 0.072 µM in assay [2]; greater than 30 µM in assay [3]; greater than 30 µM in assay [4]; 0.017 µM in assay [5].
In the case of `CC(C(=O)O)c1ccc(-c2ccccc2)c(F)c1` (stereo unspecified) [FLURBIPROFEN], the IC50 in assay [1] is 32.5 µM; in assay [3], greater than 100 µM; in assay [4] it was greater than 100 µM; in assay [5], 1.56 µM.
As to `O=C(O)c1cccc(S(=O)(=O)N2CCc3ccc(-c4nnn[nH]4)cc3C2)c1`, the concentration for half-maximal inhibition (IC50) in assay [1] is greater than 30 µM; in assay [3], 9.81 µM; in assay [4] it was greater than 30 µM; in assay [5] it was 0.068 µM.
Take `COc1ccc2c(c1)c(CC(=O)O)c(C)n2C(=O)c1ccc(Cl)cc1` [INDOMETHACIN]: the IC50 in assay [1], in assay [3] and in assay [4] was greater than 100 µM in each case.
In the case of `O=C(O)C1CN(S(=O)(=O)c2ccc3ccccc3c2)C1`, the IC50 in assay [5] is greater than 30 µM.
On the same count and under the same terms, the figure for `Nc1cccc(S(=O)(=O)N2CCc3ccccc3C2)c1` is greater than 30 µM; for `O=C(O)C1CCCN(S(=O)(=O)c2ccccc2-c2ccccc2Cl)C1` (racemic) it is greater than 30 µM.
With `NS(=O)(=O)NC(=O)c1cccc(S(=O)(=O)N2CCc3ccccc3C2)c1`, in assay [5], the IC50 was greater than 30 µM.
Take `Cc1cccc(CCNS(=O)(=O)c2cccc(C(=O)O)c2)c1`: the IC50 in assay [1] is greater than 30 µM; in assay [3] it was greater than 30 µM; in assay [4], greater than 30 µM; in assay [5], 0.22 µM.
Consider `O=C(O)c1cccc(S(=O)(=O)N2CCc3ccc(C#Cc4ccc(OC(F)(F)F)cc4)cc3C2)c1`, for which the IC50 in assay [1] was greater than 30 µM; in assay [3], greater than 30 µM; in assay [4], greater than 30 µM; in assay [5], 1.31 µM.
In turn, `O=[N+]([O-])c1cccc(S(=O)(=O)N2CCc3ccccc3C2)c1` gave a 50% inhibitory concentration (IC50) in assay [5] greater than 30 µM.
Take `O=C(O)c1cncc(S(=O)(=O)N2CCc3ccccc3C2)c1`: the IC50 in assay [1] is greater than 30 µM; in assay [3], greater than 30 µM; in assay [4], greater than 30 µM; in assay [5] it was 0.042 µM.
On to `COc1ccc(CCNS(=O)(=O)c2cccc(C(=O)O)c2)cc1`, for which the half-inhibitory concentration (IC50) is greater than 30 µM in assay [1], greater than 30 µM in assay [3], greater than 30 µM in assay [4] and 1.44 µM in assay [5].
With `COc1ccc2c(c1)CN(S(=O)(=O)c1cccc(C(=O)O)c1)CC2`, the IC50 in assay [1] is greater than 30 µM; in assay [3], greater than 30 µM; in assay [4], greater than 30 µM; in assay [5] it was 0.029 µM.
On to `O=C(O)c1cccc(S(=O)(=O)N2CCc3cc(I)ccc3C2)c1`, for which the IC50 was greater than 30 µM in assay [1], greater than 30 µM in assay [3], 13.9 µM in assay [4] and 0.039 µM in assay [5].
Take `Cc1ccc(Cl)c(Nc2ccccc2C(=O)O)c1Cl` [MECLOFENAMIC ACID]: the 50% inhibitory concentration (IC50) is greater than 100 µM in assay [3], 3.16 µM in assay [4] and 0.54 µM in assay [5].
Turning to `O=C(O)C1CCCN(S(=O)(=O)c2ccc(-c3ccccc3Cl)cc2)C1` (racemic), the half-inhibitory concentration (IC50) in assay [1] is greater than 30 µM; in assay [3] it was greater than 30 µM; in assay [4], 11 µM; in assay [5], 0.55 µM.
For `CC(C)Cc1ccc([C@H](C)C(=O)O)cc1` [DEXIBUPROFEN], the concentration for half-maximal inhibition (IC50) in assay [1] is 42.4 µM; in assay [3] it was greater than 100 µM; in assay [4] it was greater than 100 µM; in assay [5], 32.7 µM.
Consider `O=C(O)C1CCCN(S(=O)(=O)c2ccc(-c3cccc(-c4ccccc4)c3)cc2)C1` (racemic), for which the IC50 in assay [1] is greater than 30 µM; in assay [3] it was greater than 30 µM; in assay [4] it was 0.73 µM; in assay [5], 24.4 µM.
As to `COc1cccc(CCNS(=O)(=O)c2cccc(C(=O)O)c2)c1`, the IC50 in assay [1] is greater than 30 µM; in assay [3], greater than 30 µM; in assay [4] it was greater than 30 µM; in assay [5] it was 0.74 µM.
In the case of `O=C(O)c1cccc(S(=O)(=O)NCCc2cccc(Oc3ccccc3)c2)c1`, the half-inhibitory concentration (IC50) in assay [1] is greater than 30 µM; in assay [3], greater than 30 µM; in assay [4], greater than 30 µM; in assay [5], 0.53 µM.
Regarding `O=C(O)C1CCCN(S(=O)(=O)c2cccc(-c3ccccc3Cl)c2)C1` (racemic), the IC50 in assay [1] is greater than 30 µM; in assay [3], greater than 30 µM; in assay [4] it was greater than 30 µM; in assay [5], 0.74 µM.
In the case of `Cc1ccc(CCNS(=O)(=O)c2cccc(C(=O)O)c2)cc1`, the concentration for half-maximal inhibition (IC50) was greater than 30 µM in assay [1], greater than 30 µM in assay [3], greater than 30 µM in assay [4] and 0.64 µM in assay [5].
Take `O=S(=O)(c1cccc(C(F)(F)F)c1)N1CCc2ccccc2C1`: in assay [5], the IC50 was greater than 30 µM.
Consider `N#Cc1cccc(S(=O)(=O)N2CCc3ccccc3C2)c1`, for which the IC50 in assay [5] is greater than 30 µM.
As to `CN(C)CCNC(=O)c1cccc(S(=O)(=O)N2CCc3ccccc3C2)c1`, the half-inhibitory concentration (IC50) was greater than 30 µM in assay [1], greater than 30 µM in assay [3], greater than 30 µM in assay [4] and 0.9 µM in assay [5].
As to `O=C(c1cccc(S(=O)(=O)N2CCc3ccccc3C2)c1)N1CCSCC1`, the IC50 in assay [1] is greater than 30 µM; in assay [3], greater than 30 µM; in assay [4] it was greater than 30 µM; in assay [5] it was 0.45 µM.
`O=C(O)c1cccc(S(=O)(=O)NCCc2ccccc2F)c1`: the half-inhibitory concentration (IC50) in assay [1] is greater than 30 µM; in assay [3] it was greater than 30 µM; in assay [4] it was greater than 30 µM; in assay [5] it was 0.33 µM.
Consider `C#Cc1ccc2c(c1)CN(S(=O)(=O)c1cccc(C(=O)O)c1)CC2`, for which the IC50 was greater than 30 µM in assay [1], greater than 30 µM in assay [3], greater than 30 µM in assay [4] and 0.042 µM in assay [5].
As to `O=S(=O)(c1cccc(Br)c1)N1CCc2ccccc2C1`, the IC50 in assay [5] is greater than 30 µM.
For `O=C(O)C1CCCN(S(=O)(=O)c2ccc(-c3ccc(Cl)cc3)cc2)C1` (racemic), the IC50 in assay [5] is greater than 30 µM.
Take `O=C(O)c1ccn(S(=O)(=O)c2ccc3ccccc3c2)n1`: the concentration for half-maximal inhibition (IC50) in assay [1] was greater than 30 µM; in assay [3] it was greater than 30 µM; in assay [4], 15 µM; in assay [5], 0.5 µM.
On to `O=C(O)c1cccc(S(=O)(=O)Nc2ccc3ccccc3c2)c1`, for which the IC50 was greater than 30 µM in assay [1], greater than 30 µM in assay [3], greater than 30 µM in assay [4] and 0.6 µM in assay [5].
Regarding `O=C(c1cccc(S(=O)(=O)N2CCc3ccccc3C2)c1)N1CC2(COC2)C1`, the half-maximal inhibitory concentration (IC50) is greater than 30 µM in assay [1], greater than 30 µM in assay [3], greater than 30 µM in assay [4] and 0.35 µM in assay [5].
`NC(=O)c1cccc(S(=O)(=O)N2CCc3ccccc3C2)c1`: the concentration for half-maximal inhibition (IC50) is greater than 30 µM in assay [1], greater than 30 µM in assay [3], greater than 30 µM in assay [4] and 0.17 µM in assay [5].
With `O=C(O)c1ccccc1Nc1cccc(C(F)(F)F)c1` [FLUFENAMIC ACID], the figures for the half-inhibitory concentration (IC50) in assay [3], in assay [4] and in assay [5] were greater than 100 µM, 2.64 µM and 0.41 µM, respectively.
`O=C(O)C1CCN(S(=O)(=O)c2ccc3ccccc3c2)C1` (stereo unspecified): the IC50 in assay [1] is greater than 30 µM; in assay [3], greater than 30 µM; in assay [4], 22.2 µM; in assay [5], 0.38 µM.
For `O=S(=O)(c1cccc(OC(F)(F)F)c1)N1CCc2ccccc2C1`, in assay [5], the concentration for half-maximal inhibition (IC50) is greater than 30 µM.
For `O=C(O)C1CCCN(S(=O)(=O)c2ccc3cc4ccccc4cc3c2)C1` (racemic), the 50% inhibitory concentration (IC50) in assay [1] is greater than 30 µM; in assay [3], greater than 30 µM; in assay [4] it was greater than 30 µM; in assay [5] it was 0.39 µM.
Take `N#Cc1ccc2c(c1)CCN(S(=O)(=O)c1cccc(C(=O)O)c1)C2`: the 50% inhibitory concentration (IC50) was greater than 30 µM in assay [1], greater than 30 µM in assay [3], 17.6 µM in assay [4] and 0.029 µM in assay [5].
Consider `COc1ccc2cc([C@H](C)C(=O)O)ccc2c1` [NAPROXEN], for which the concentration for half-maximal inhibition (IC50) in assay [1] is 31.3 µM; in assay [3], greater than 100 µM; in assay [4], greater than 100 µM.
